Patent US6884907B2, “Hydroxamic acids and acyl hydroxamines as naaladase inhibitors” (Guilford Pharmaceuticals Inc., priority 2001, dated 2005)

What was measured:
[1] = molecular target: T1, NAALADase (Homo sapiens, UniProt Q04609); experiment: In vitro inhibition of NAALADase activity; assay type: biochemical; conditions: average IC50 values
T1 construct: from tissue; host or cells: unspecified tissue
Procedure: Various compounds of the invention were tested for in vitro inhibition of NAALADase activity. The average IC50 values of the tested compounds are provided bewlow in Table II.
Protocol for Assaying In Vitro Inhibition of NAALADase Activity
The following were combined in assay tubes: 100 μL of 10 mM CoCl2, 250 μL of 200 mM Tris chloride, 100 μL tissue, 100 μL of 10 mM NAALADase inhibitor in Bakers H2O, and Bakers H2O to make a total volume of 950 μL. Each assay tube was then incubated for 10 minutes in a 37° C. water bath. 50 μL of 3-H-NAAG was then added to each assay tube and incubated for an additional 15 minutes in at 37° C. water bath. The assay was stopped by adding 1.0 ml of 0.1 M sodium phosphate.
Glutamate released by the action of the NAALADase enzyme was separated from the assay solution using an anion exchange resin. The resin was equilibrated to 25° C., 2.0 ml of the resin was added to a Pasteur pipette pre-loaded with a single glass bead, and each column was washed twice with distilled H2O. A column was placed over a scintillation vial and 200 μL of an assay sample was loaded onto the column. After draining, glutamate was eluted using two 1.0 ml washes of 1 M formic acid. After addition of 10 ml of scintillation cocktail, each sample was counted for 2 minutes on a scintillation counter.

[2] = tested on: STZ-diabetic animals; experiment: Diabetic neuropathy in STZ model (nerve conduction velocity); assay type: in vivo, rats; conditions: either dose (1 or 10 mg/kg), versus diabetic controls, FIGS. 10A and 10B
Procedure: Motor and sensory nerve conduction velocity was also measured in STZ-diabetic animals after 4, 8 and 12 weeks of treatment (see De Koning et al., supra, for a description of the experimental method). Briefly, stimulating needle electrodes were inserted close to the sciatic and tibial nerves with recording electrodes being placed subcutaneously over the distal foot muscles, in anesthetized rats.

[3] = tested on: STZ-induced diabetic rats; experiment: Neuropathic pain in STZ model (thermal nociception, Hargreaves apparatus); assay type: in vivo, Male Sprague-Dawley rats; conditions: 10 mg/kg i.p. daily, treatment started 45 days post-STZ, FIGS. 7A and 7B
Procedure: Male Sprague-Dawley rats (200-225 g) were rendered diabetic by intravenous administration of streptozotocin (“STZ”, 70 mg/kg in phosphate buffered saline). Diabetic animals were divided into five groups: one group receiving Compound A (10 mg/kg or 1 mg/kg), Compound D (10 mg/kg or 1 mg/kg) or vehicle. Another group of animals (non-STZ treated) served as non-diabetic controls. Drug/vehicle treatment was started in diabetic animals 45 days post-STZ administration. STZ-induced diabetic rats were tested for sensitivity to a heat source as soon as blood glucose levels rose to 320 mg/dl or above (30 days post STZ). The rats were then acclimated to a Hargreaves apparatus and thermal nociception was monitored using an infrared heat source directed into the dorsal surface of the hindpaw, and the time taken for the animal to remove its paw noted to the nearest 0.1 seconds (see Hargreaves et al., supra, for detailed experimental method). The intensity of the beam source was adjusted such that the mean latency for control animals (non-STZ treated) was approximately 10 seconds. Each animal was tested 8 times and the mean difference score (between mean non-diabetic control latency and mean diabetic latency) are graphically presented in FIGS. 7A and 7B.

[4] = tested on: BB/W diabetic rats; experiment: Progression of neuropathic pain and nerve conduction deficits in BB/W model; assay type: in vivo, Male BB/W rats
Text: Male BB/W rats (BRI, Mass) spontaneously develop a cell mediated autoimmune destruction of pancreatic B cells, resulting in onset of insulin-dependent (Type I) diabetes (Guberski 1994). […] This renders them valuable for experimental trials of new compounds for future treatments of this major disorder. In the present study, Compound D and Compound A were examined for their ability to alter the progression of diabetic neuropathy. The rats received daily injection of Compound D or Compound A (10 mg/kg i.p.) or vehicle, starting at the onset of diabetes (hyperglycemia) and up to 6 months thereafter. Another group of non-diabetic rats also receiving vehicle were tested. All animals were continuously monitored for body weight, urine volume, blood sugar and glycated haemoglobin. In the first month of the study, all animals were tested for thermal nociception in a Hargreaves apparatus, weekly. After the first month this was done biweekly and then monthly. The testing consists of directing an infrared heat source onto the dorsal surface of the rat hindpaw and noting the time taken for the animal to remove its paw (see Hargreaves et al., supra, for a description of the experimental method). Each animal was tested 8 times and the mean withdrawal latency noted.
Nerve conduction velocity was also measured every two weeks through the first eight weeks of treatment and every month thereafter through to the six months of treatment (see De Koning et al., Peptides, Vol. 8, No. 3, pp. 415-22 (1987) for a description of the experimental method). […] This was apparent starting at 8 weeks of treatment and persisted to a similar degree through to the six month termination point of the study.

[5] = tested on: STZ-diabetic rats; experiment: Reversal of diabetic neuropathy in STZ model, delayed dosing: nerve conduction velocity; assay type: in vivo; conditions: for motor nerve conduction velocity: daily p.o., within 8 weeks of dosing, persisted through 12 weeks, FIG. 21
Procedure: (§1) Rats (200-225 grams) were injected with STZ (70 mg/kg) into the tail vein. Diabetes (>350 mg/dl) was confirmed in all rats, 4 weeks after STZ administration. Rats were left untreated until 35-49 days after STZ. Compound D (1, 3, or 10 mg/kg), Compound E (10 mg/kg), or vehicle were dosed daily p.o. following confirmation of hyperalgesia and/or nerve conduction velocity deficits. In separate experiments, onset of treatment was delayed until 60 to 90 days after STZ administration. Nerve conduction velocity or withdrawal response to thermal stimulation of hind paws was measured at intervals, usually bi-weekly for thermal response and monthly for nerve conduction velocity.
Sensory and motor nerve conduction velocities were evaluated using the method of De Koning and Gispen (Peptides 8: 415-422, 1987). Electrophysiological evaluation was carried out within one hour of dosing. Animals were anesthetized with isoflurane and stimulating needle electrodes were inserted close to the sciatic nerve at the sciatic notch and the tibial nerve near the ankle. Recording electrodes were placed over the foot muscles. Stimuli were applied and responses recorded. Motor and sensory nerve conduction velocities were calculated by measuring the distance between the sciatic notch and ankle sites, and the latency between the M-wave and the H-reflex.

[6] = tested on: STZ-diabetic rats; experiment: Reversal of diabetic neuropathy in STZ model, delayed dosing: thermal hyperalgesia; assay type: in vivo; conditions: for neuropathic hyperalgesia (withdrawal latency): daily p.o., treatment started 5 weeks post STZ, within two weeks of treatment, FIG. 20
Procedure: as §1
Animals were acclimated to the apparatus for at least 5 min. An infrared source was placed under below the plantar surface of the rat hind-paw. The intensity of the source was adjusted so that latency for normal rats was about 10 secs. Animals were tested for thermal response latency according to the method of Hargreaves et al (Pain 77-88, 1988). Each animal was tested 8 times (4 each hind limb) and the latency of response recorded automatically to nearest 0.1 sec. An average of the last 4 measurements for each paw was calculated (8 total measurements) and noted for each rat.

T1 sequence (Q04609 whole entry): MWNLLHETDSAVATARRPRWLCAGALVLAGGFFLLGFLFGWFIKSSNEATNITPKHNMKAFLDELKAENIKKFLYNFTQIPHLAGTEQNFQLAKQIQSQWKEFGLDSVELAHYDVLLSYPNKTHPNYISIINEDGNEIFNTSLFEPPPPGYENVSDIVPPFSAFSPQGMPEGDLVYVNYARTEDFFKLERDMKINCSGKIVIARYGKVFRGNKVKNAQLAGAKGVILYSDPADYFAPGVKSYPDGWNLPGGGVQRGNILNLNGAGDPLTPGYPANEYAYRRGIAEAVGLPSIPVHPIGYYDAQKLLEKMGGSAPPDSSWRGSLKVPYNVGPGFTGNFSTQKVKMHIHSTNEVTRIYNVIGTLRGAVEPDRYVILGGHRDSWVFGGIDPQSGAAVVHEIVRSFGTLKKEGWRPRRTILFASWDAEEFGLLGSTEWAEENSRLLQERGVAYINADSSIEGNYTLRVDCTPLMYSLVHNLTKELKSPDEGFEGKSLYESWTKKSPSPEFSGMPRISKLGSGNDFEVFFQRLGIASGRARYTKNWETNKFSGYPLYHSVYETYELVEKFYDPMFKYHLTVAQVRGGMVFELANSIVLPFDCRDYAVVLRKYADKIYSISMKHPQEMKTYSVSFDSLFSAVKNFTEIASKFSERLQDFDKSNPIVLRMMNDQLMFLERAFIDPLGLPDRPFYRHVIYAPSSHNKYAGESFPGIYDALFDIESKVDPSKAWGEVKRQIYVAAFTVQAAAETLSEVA

| IC50 [1] | SMILES | further results |
| --- | --- | --- |
| 0.06 µM | CC(C)(C)c1cc(CC(CCC(=O)NO)C(=O)O)cc(C(=O)O)c1 (stereo not drawn) [Compound 2, 3-tert-Butyl-5-(2-carboxy-4-hydroxycarbamoyl-butyl)-benzoic acid] | – |
| 100 µM | COC(=O)c1cccc(CC(C(=O)O)C(=O)NO)c1 (stereo not drawn) [Compound 10, 3-(2-Carboxy-2-hydroxycarbamoyl-ethyl)-benzoic acid methyl ester] | – |
| 0.4 µM | O=C(CSCCCC(Cc1cccc(C(=O)O)c1)C(=O)O)NO (stereo not drawn) [Compound 17, 3-(2-Carboxy-5-hydroxycarbamoylmethyl-sulfanylpentyl)-benzoic acid] | – |
| 4 µM | CCC(SCCCC(Cc1cccc(C(=O)O)c1)C(=O)O)C(=O)NO (stereo not drawn) [Compound 19, 3-[2-Carboxy-5-(1-hydroxycarbamoyl-propylsulfanyl)-pentyl]-benzoic acid] | – |
| 3 µM | O=C(CSCCCC(Cc1ccc(C(=O)O)c(Br)c1)C(=O)O)NO (stereo not drawn) [Compound 65, 2-Bromo-4-(2-carboxy-5-hydroxycarbamoylmethyl-sulfanylpentyl)-benzoic acid] | – |
| 0.5 µM | CC(C)(C)c1cc(CC(CCCC(=O)NO)C(=O)O)cc(C(=O)O)c1 (stereo not drawn) [Compound 71] | – |
| 0.05 µM | O=C(CCC(Cc1cccc(-c2cccc(C(=O)O)c2)c1)C(=O)O)NO (stereo not drawn) [Compound 72] | – |
| 2 µM | O=C(CCC(Cc1ccccc1C(=O)O)C(=O)O)NO (stereo not drawn) [Compound 73] | – |
| 3 µM | CS(=O)(=O)c1ccc(CC(CCC(=O)NO)C(=O)O)cc1 (stereo not drawn) [Compound 74] | – |
| 0.03 µM | O=C(CCC(Cc1ccc(C(=O)O)cc1)C(=O)O)NO (stereo not drawn) [Compound 75, 4-[2-carboxy-5-(hydroxyamino)-5-oxopentyl]benzoic acid] | – |
| 100 µM | O=CN(O)CCCCC(Cc1cccc(C(=O)O)c1)C(=O)O (stereo not drawn) [Compound 76] | – |
| 2.22 µM | O=CN(O)CCCC(Cc1cccc(C(=O)O)c1)C(=O)O (stereo not drawn) [Compound 77] | – |
| 10.3 µM | O=CN(O)CCC(Cc1cccc(C(=O)O)c1)C(=O)O (stereo not drawn) [Compound 78] | – |
| 65.5 µM | O=CN(O)CCC(Oc1cccc(C(=O)O)c1)C(=O)O (stereo not drawn) [Compound 79] | – |
| 9 µM | O=C(O)CNC(=O)c1cc(C(=O)O)cc(C(=O)NO)c1 [Compound 81] | – |
| 2 µM | O=C(O)CCC(CCC(=O)NO)C(=O)O (stereo not drawn) [Compound 83] | – |
| 40 µM | O=C(O)CCC(=O)NO [Compound 84] | – |
| 0.9 µM | O=C(O)CCC(CCCC(=O)NO)C(=O)O (stereo not drawn) [Compound 85] | – |
| 4 µM | O=C(O)CCC(C(=O)O)C(=O)NO (stereo not drawn) [Compound 86] | – |
| 25.8 µM | O=C(Cc1ccc(CC(Cc2cccc(C(=O)O)c2)C(=O)O)cc1)NO (stereo not drawn) [Compound 90] | – |
| 40 µM | O=C(O)CCC(Cc1cccc(C(=O)NO)c1)C(=O)O (stereo not drawn) [Compound 94] | – |
| – | O=C(O)CCC(CCS)C(=O)O (stereo not drawn) [Compound D, 2-(2-sulfanylethyl)pentanedioic acid] | motor and sensory nerve conduction velocities [2]: increased both motor and sensory nerve conduction velocities; hyperalgesic response (withdrawal latency difference score) [3]: completely reversed; nerve conduction velocity ([4]; 10 mg/kg daily, versus diabetic vehicle controls, from 8 weeks to six months, FIG. 12): significantly less severe nerve conduction deficits; withdrawal latency ([4]; 10 mg/kg i.p. daily, versus diabetic vehicle-treated rats, from 4 weeks through six months of treatment, FIG. 11): longer withdrawal latencies; motor nerve conduction velocity [5]: reversed the motor nerve conduction velocity towards normal; motor nerve conduction ([5]; lower doses 1 and 3 mg/kg, treatment from 7 weeks post STZ, 8 weeks after dosing): remained unimproved; sensory nerve conduction ([5]; lower doses 1 and 3 mg/kg, treatment from 7 weeks post STZ, within 4 weeks of treatment): significantly improved towards normal; sensory and motor nerve conduction velocity deficits ([5]; untreated until 60 days after STZ, external CRO, FIGS. 26 and 27): Partial reversal of both deficits; neuropathic hyperalgesia (withdrawal latency) [6]: reversed towards normal; neuropathic pain abnormalities ([6]; lower doses 1 and 3 mg/kg, treatment initiated 7 weeks after STZ, FIG. 23): Significant reduction in pain abnormalities |
| – | O=C(O)c1cccc(CC(CCCS)C(=O)O)c1 (stereo not drawn) [Compound E, 3-carboxy-alpha-(3-mercaptopropyl)benzenepropanoic acid] | motor nerve conduction velocity [5]: reversed the motor nerve conduction velocity towards normal; neuropathic hyperalgesia (withdrawal latency) [6]: reversed towards normal |
